Measured values as given in US12565494B2, “Inhibitors of human respiratory syncytial virus and metapneumovirus” (priority 2022, dated 2026).
Read-outs that look alike come from different tables or passages of the source.

Columns and labels:
RSV-A2-GFP virus = experiment: microbe, parasite or virus in culture; assay type: cell-based, Human Respiratory Syncytial Virus; settings: Calu-1 cells, RSV-A2-GFP MOI=1.2, 96 hrs, GFP-expressing cells counted
Procedure: To set up the assay, ARF vials were thawed in a 37° C. water bath and a control compound was resuspended in assay media DMEM (Dulbecco's Modified Eagle Medium) containing 2% FBS, 100 U/ml Penicillin-Streptomycin.
GFP sequence was derived from pJTI™ R4 Dest CMV N-EmGFP pA Vector (Invitrogen) and was cloned into the intergenic sequence between wild-type RSV-A2 P and M genes using standard recombineering techniques. Recombinant RSV-A2-GFP was propagated in Hep2 cells (human cells contain HeLa marker chromosomes and were derived via HeLa contamination, ATCC CCL-23) with a Multiplicity of Infection (MOI) of 0.1. Virus was harvested 3 days after infection by collecting all culture material and then freeze-thawing the mixture for 5 minutes. Working virus stocks were generated by thawing frozen viral cultures in 37° C. water bath, which were centrifuged at 218 g for 15 min at 4° C. 1/10 of 10×SPG (Biological Industries 06-3061-01-5A) were added and then mixed. The supernatant was aliquoted, frozen in liquid nitrogen, and then transferred to a −80° C. freezer for storage. Virus titer was determined by automated plaque assay in HEp-2 cells following methods described previously (Wen Z. et al.; 2019).
Calu-1 cells were purchased from ATCC (Cat #HTB-54) and were expanded in growth media (DMEM containing 10% FBS, 100 U/ml Penicillin-Streptomycin). To make ARF, cell culture media was removed and discarded and the cell layer was briefly rinsed with PBS to remove serum. 2.5 mL of TrypLE Express solution were added and cells incubated until dislodged, to which growth media was added and the cells were resuspended by gentle pipetting. Cells were counted for concentration and viability as determined by ViCell. Cells were centrifuged at RT, 300 g for 5 minutes to pellet cells. The supernatant was gently aspirated and the pellet was flicked to loosen cells. Cells were resuspended in an appropriate volume of freezing medium (DMEM containing 10% DMSO, 10% FBS, 100 U/ml Penicillin-Streptomycin) to achieve a concentration of 5×10^6 cells/mL. 1 mL aliquots of the cell suspension were transferred to freezing vials. The vials were put into an upright container in a −80° C. freezer overnight before transferring vials to liquid nitrogen for storage
Assay ready freeze-down (ARF, generation described separately) Calu-1 cells (ATCC HTB-54) were used. Compound plates were prepared by dispensing compounds dissolved in DMSO into the wells of a 384 well Corning® 3985 plate with an ECHO acoustic dispenser and compounds were tested in 10-point serial 3-fold dilution. […] To set up the assay, ARF vial(s) were thawed in a 37° C. water bath and were then resuspended into assay media (DMEM containing 2% FBS, 100 U/ml Penicillin-Streptomycin). Cells were counted using default parameters on ViCell and diluted to 20,000 cells/mL in assay media. RSV-A2-GFP virus was added to cells at 24,000 pfu/ml (MOI=1.2) and mixed by gentle inversion. 10 μL/well of 100% DMSO was dispensed as CellTiter-Glo (CTG) assay Max_E controls wells. The cells were dispensed at 50 μL/well using Bravo with 50 μL filtered tips into compound plates. Plates were covered with MicroClime lids, loaded with 7.5 mL of assay media to minimize evaporation, and were incubated at 37° C. and 5% CO2 for 96 hrs. Following incubation, distinct, GFP-expressing cells were counted using an Acumen imaging system with appropriate settings. A same-well CTG assay was performed by adding 10 μL/well reconstituted CellTiter-Glo reagent (Promega G7573) and plates were read on PerkinElmer Envision according to manufacturer's instructions. Raw data were loaded and analyzed in ActivityBase. Antiviral IC50 and cytotoxicity CC50 values were determined using a 4 parameter logistic fit based on the Levenberg-Marquardt algorithm. Model: 205-4 Parameter Logistic.

hMPV-GFP virus = experiment: microbe, parasite or virus in culture; assay type: cell-based, Human Metapneumovirus; settings: VERO cells, hMPV-GFP MOI=1.25, 48 hrs, GFP-expressing cells counted
Procedure: GFP expressing rgHMPV #3 p3 was generated in Dr. Buchholz's lab (Biacchesi S. et al., J Virol. 2007 June; 81(11): 6057-6067) and propagated in VERO cells (ATCC Cat #CCL-81) with a Multiplicity of Infection (MOI) of 0.1. Virus was harvested 4 days after infection by collecting cultured material and was freeze-thaw cycled in liquid nitrogen twice. Working virus stocks were generated from thawing frozen samples in 37° C. water bath, which were centrifuged at 218 g for 15 min at 4° C. 1/10 of 10×SPG (Biological Industries 06-3061-01-5A) were added and then mixed. The supernatant was aliquoted, frozen in liquid nitrogen, and then transferred to a −80° C. freezer for storage. Virus titer was determined by performing titration test in 96-well plates and calculate approximate virus titer using GFP event/well data.
Compound plates were prepared by dispensing compounds dissolved in DMSO into wells of a 384 well Corning 3985 polystyrene flat clear bottom optical imaging microplate (202.5 nL/well) using an ECHO acoustic dispenser. Each compound was tested in 10-point serial 3-fold dilution (typical final concentrations: 40,300 nM-2 nM). […] Continuous culture of VERO cells was maintained in complete culture media (OptiMEM supplemented with 2 mM GlutaMAX™ and 100 U/ml Penicillin-Streptomycin). To set up the assay, VERO cells were trypsinized with 0.25% Trypsin-EDTA until cells were dislodged, then cells were re-suspended with 1 mL FBS. Cells were spundown at 300 g for 5 minutes and cells were washed twice with culture media and counted using default parameters on ViCell. Cells were then diluted to 100,000 cells/mL (5,000 cells/50 μL) in complete culture media+TrypLE Select (80 μL/mL). hMPV-GFP virus was added to cells at 125,000 pfu/mL (MOI=1.25) and were mixed by gentle inversion. 10 μL/well of 100% DMSO was dispensed to CellTiter-Glo (CTG) assay Max_E controls wells. Cells were dispensed at 50 μL/well using Bravo and 50 μL filtered tips into compound plates. Plates were covered with MicroClime lids and loaded with 7.5 mL of assay media to minimize evaporation. Plates were lightly shaken for 10 minutes at room temperature and then incubated at 37° C. and 5% CO2 for 48 hrs. Following incubation, distinct GFP-expressing cells were counted using an Acumen imaging system with appropriate settings. A same-well CTG assay was performed by adding 10 μL/well reconstituted CellTiter-Glo reagent (Promega G7573) and plates were read on PerkinElmer Envision according to manufacturer's instructions. Raw data were loaded and analyzed in ActivityBase. Antiviral IC50 and cytotoxicity CC50 values were determined using a 4 parameter logistic fit based on the Levenberg-Marquardt algorithm. Model: 205-4 Parameter Logistic.

[1] = read-out: RSV EC50, Table I Summary of Activities for RSV
[2] = read-out: RSV EC50, Table II Summary of Activities for hMPV
[3] = Table I Summary of Activities for RSV, read-out: RSV EC50
[4] = Table II Summary of Activities for hMPV, read-out: RSV EC50
[5] = human respiratory syncytial virus, Calu-1, 96 h, read-out: RSV EC50, Table I Summary of Activities for RSV
[6] = Vero, 48 h, read-out: RSV EC50, Table II Summary of Activities for hMPV

Row | SMILES | EC50 (RSV-A2-GFP virus; [1]) | EC50 (hMPV-GFP virus; [2]) | also measured
1 | Cn1nc(-c2cscn2)cc1C(=O)N1C[C@@H]2[C@H](C1)[C@H]2Oc1cc(C2(C)CCN2)cc(-c2ccc(F)cc2)n1 (single isomer, unassigned; enantiomer 2) [Example 55B] | < 10 nM | > 100 nM | –
2 | Cn1nc(-c2cscn2)cc1C(=O)N1C[C@@H]2[C@H](C1)[C@H]2Oc1cc(C2(C)CCCN2)cc(-c2ccc(F)cc2)n1 (single isomer, unassigned; enantiomer 2) [Example 56B] | < 10 nM | > 100 nM | –
3 | Cn1nc(-c2cscn2)cc1C(=O)N1C[C@@H]2C(Oc3cc(C(C)(N)CO)cc(-c4ccc(F)cc4)n3)[C@@H]2C1 (single isomer, unassigned; enantiomer 2) [Example 57B] | – | – | EC50 (RSV-A2-GFP virus; [3]): < 10 nM; EC50 (hMPV-GFP virus; [4]): > 100 nM
4 | Cn1nc(-c2ncco2)cc1C(=O)N1C[C@@H]2C(Oc3cc(C(C)(N)CO)cc(-c4ccc(F)cc4)n3)[C@@H]2C1 (single isomer, unassigned; enantiomer 2) [Example 58B] | – | – | EC50 (RSV-A2-GFP virus; [3]): < 10 nM; EC50 (hMPV-GFP virus; [4]): > 100 nM
5 | CC(N)c1cc(O[C@H]2[C@@H]3CN(C(=O)c4cc(-c5cscn5)nn4C)C[C@@H]32)nc(-c2ccc(F)cc2)c1 (single isomer, unassigned; enantiomer 2) [Example 61B] | < 10 nM | > 100 nM | –
6 | CC(N)c1cc(O[C@H]2[C@@H]3CN(C(=O)c4cc(-c5ccon5)nn4C)C[C@@H]32)nc(-c2ccc(F)cc2)c1 (single isomer, unassigned; enantiomer 2) [Example 62B] | < 10 nM | > 100 nM | –
7 | Cn1nc(-c2cscn2)cc1C(=O)N1C[C@@H]2[C@H](C1)[C@H]2Oc1cc(C(C)(C)N)cc(C2CCC(C)(C)CC2O)n1 (single isomer, unassigned; enantiomer 2) [Example 66B] | 10 to 100 nM | > 100 nM | –
8 | Cn1nc(-c2cscn2)cc1C(=O)N1C[C@@H]2[C@H](C1)[C@H]2Oc1cc(C(C)(C)N)cc(C2CCC(C)(C)CC2O)n1 (single isomer, unassigned; enantiomer 3) [Example 66C] | 10 to 100 nM | > 100 nM | –
9 | Cn1nc(-c2cscn2)cc1C(=O)N1C[C@@H]2[C@H](C1)[C@H]2Oc1cc(C(C)(C)N)cc(C2CCC(C)(C)CC2O)n1 (single isomer, unassigned; enantiomer 4) [Example 66D] | 10 to 100 nM | > 100 nM | –
10 | Cn1nc(-c2cscn2)cc1C(=O)N1C[C@@H]2[C@H](C1)[C@H]2Oc1cc(C(C)(N)C(N)=O)cc(-c2ccc(F)cc2)n1 (single isomer, unassigned; ent-2) [Example 49A] | – | – | EC50 (RSV-A2-GFP virus; [5]): < 10 nM; EC50 (hMPV-GFP virus; [6]): > 100 nM
11 | Cn1nc(-c2cscn2)cc1C(=O)N1C[C@@H]2[C@H](C1)[C@H]2Oc1cc(C(C)(N)C(N)=O)cc(-c2ccc(F)cc2)n1 (single isomer, unassigned; ent-2) [Example 49B] | < 10 nM | > 100 nM | –
12 | Cn1nc(-c2cscn2)cc1C(=O)N1C[C@@H]2[C@H](C1)[C@H]2Oc1cc(C2(C)CNC2=O)cc(-c2ccc(F)cc2)n1 (single isomer, unassigned; ent-3) [Example 50A] | – | – | EC50 (RSV-A2-GFP virus; [5]): < 10 nM; EC50 (hMPV-GFP virus; [6]): > 100 nM
13 | Cn1nc(-c2cscn2)cc1C(=O)N1C[C@@H]2[C@H](C1)[C@H]2Oc1cc(C2(C)CNC2=O)cc(-c2ccc(F)cc2)n1 (single isomer, unassigned; ent-3) [Example 50B] | < 10 nM | > 100 nM | –
14 | Cn1nc(-c2cscn2)cc1C(=O)N1C[C@@H]2[C@H](C1)[C@H]2Oc1cc(C2(C)CCNC2=O)cc(-c2ccc(F)cc2)n1 (single isomer, unassigned; ent-3) [Example 51A] | – | – | EC50 (RSV-A2-GFP virus; [5]): < 10 nM; EC50 (hMPV-GFP virus; [6]): > 100 nM
15 | Cn1nc(-c2cscn2)cc1C(=O)N1C[C@@H]2[C@H](C1)[C@H]2Oc1cc(C2(C)CCNC2=O)cc(-c2ccc(F)cc2)n1 (single isomer, unassigned; ent-3) [Example 51B] | < 10 nM | > 100 nM | –
16 | Cc1nc(-c2ncco2)sc1C(=O)N1C[C@@H]2[C@H](C1)[C@H]2Oc1cc(C(C)(C)N)cc(-c2ccc(F)cc2)n1 [Example 3, ((1R,5S,6s)-6-((4-(2-aminopropan-2-yl)-6-(4-fluorophenyl)pyridin-2-yl)oxy)-3-azabicyclo[3.1.0]hexan-3-yl)(4-methyl-2-(oxazol-2-yl)thiazol-5-yl)methanone] | – | – | EC50 (RSV-A2-GFP virus; [5]): < 10 nM; EC50 (hMPV-GFP virus; [6]): 10 to 100 nM
17 | Cc1cnc(-c2nc(C)c(C(=O)N3C[C@@H]4[C@H](C3)[C@H]4Oc3cc(C(C)(C)N)cc(-c4ccc(F)cc4)n3)s2)o1 [Example 4, ((1R,5S,6s)-6-((4-(2-aminopropan-2-yl)-6-(4-fluorophenyl)pyridin-2-yl)oxy)-3-azabicyclo[3.1.0]hexan-3-yl)(4-methyl-2-(5-methyloxazol-2-yl)thiazol-5-yl)methanone] | – | – | EC50 (RSV-A2-GFP virus; [3]): < 10 nM; EC50 (hMPV-GFP virus; [4]): 10 to 100 nM
